# Patent US20230092001A1, “FURANEOL GLYCOSIDE COMPOUND, PHARMACEUTICAL COMPOSITION THEREOF, PREPARATION METHOD THEREFOR, AND APPLICATION THEREOF” (priority 2019, published 2023)
# System: ulcerative colitis model (dextran sodium sulphate)
# Assay: Effect Example 1: therapeutic effect on ulcerative colitis, dextran sodium sulphate model, injected treatment, 14 days
# Type: in vivo, C57 mice
# Protocol: Thirty 10-week-old male C57 mice, SPF class animal house, temperature 20-26° C., humidity 40%-70%, alternating light-dark periods (12 h/12 h).
# Quarantine-qualified animals with similar weights were selected for the experiment.
# Mice in the blank control group were given normal drinking water throughout the experiment. The other 5 groups of mice were given drinking water containing 2% dextran sodium sulphate (DSS) from day 1 to day 5, normal drinking water from day 6 to day 7, drinking water containing 2% dextran sodium sulphate from day 8 to day 12, and normal drinking water from day 13 to day 14. The experiment ended on day 14.
# Animals in the blank control group and ulcerative colitis model group were given sterile water intraperitoneally from day 1, once a day; the other 4 groups were administered according to table 1, once a day, until the end of the experiment on day 14. Two hours after the first day of administration, the mice were started to drink water containing dextran sodium sulphate.
# (1) The mice were weighed daily.
# (2) Blood samples were collected from the orbital vein on day 14 and stored at −80° C.
# (3) On day 14, the mice were sacrificed by cervical vertebra dislocation, the colon was removed and a small amount of fecal was taken from the colon and left as a sample. The colon length and colon weight were measured. A portion of the colon and the fecal sample was stored at −80° C.
# [1] = Day 1, high-dose treatment group 40 mg/kg intraperitoneal injection
# [2] = Day 1, low-dose treatment group 10 mg/kg intraperitoneal injection
# [3] = Day 1, middle-dose treatment group 20 mg/kg intraperitoneal injection
# [4] = Day 2, high-dose treatment group 40 mg/kg intraperitoneal injection
# [5] = Day 2, low-dose treatment group 10 mg/kg intraperitoneal injection
# [6] = Day 2, middle-dose treatment group 20 mg/kg intraperitoneal injection
# [7] = Day 3, high-dose treatment group 40 mg/kg intraperitoneal injection
# [8] = Day 3, low-dose treatment group 10 mg/kg intraperitoneal injection
# [9] = Day 3, middle-dose treatment group 20 mg/kg intraperitoneal injection
# [10] = Day 4, high-dose treatment group 40 mg/kg intraperitoneal injection
# [11] = Day 4, low-dose treatment group 10 mg/kg intraperitoneal injection
# [12] = Day 4, middle-dose treatment group 20 mg/kg intraperitoneal injection
# [13] = Day 5, high-dose treatment group 40 mg/kg intraperitoneal injection
# [14] = Day 5, low-dose treatment group 10 mg/kg intraperitoneal injection
# [15] = Day 5, middle-dose treatment group 20 mg/kg intraperitoneal injection
# [16] = Day 6, high-dose treatment group 40 mg/kg intraperitoneal injection
# [17] = Day 6, low-dose treatment group 10 mg/kg intraperitoneal injection
# [18] = Day 6, middle-dose treatment group 20 mg/kg intraperitoneal injection
# [19] = Day 7, high-dose treatment group 40 mg/kg intraperitoneal injection
# [20] = Day 7, low-dose treatment group 10 mg/kg intraperitoneal injection
# [21] = Day 7, middle-dose treatment group 20 mg/kg intraperitoneal injection
# [22] = Day 8, high-dose treatment group 40 mg/kg intraperitoneal injection
# [23] = Day 8, low-dose treatment group 10 mg/kg intraperitoneal injection
# [24] = Day 8, middle-dose treatment group 20 mg/kg intraperitoneal injection
# [25] = Day 9, high-dose treatment group 40 mg/kg intraperitoneal injection
# [26] = Day 9, low-dose treatment group 10 mg/kg intraperitoneal injection
smiles,measurement,setting,value
"CC(C)=C1OC(C)=C(O[C@@H]2O[C@H](CO)[C@@H](O)[C@H](O)[C@H]2O)C1=O [Compound I-1, 4-O-β-D-glucosyl-5-methyl-2-(1-methylethylidene)-3(2H)-furanone]",Average weight of mice,[1],27.6 g
same,Rate of change in weight of mice,[1],100.0%
same,Average weight of mice,[2],27.9 g
same,Rate of change in weight of mice,[2],100.0%
same,Average weight of mice,[3],27.8 g
same,Rate of change in weight of mice,[3],100.0%
same,Average weight of mice,[4],27.6 g
same,Rate of change in weight of mice,[4],99.9%
same,Average weight of mice,[5],28.1 g
same,Rate of change in weight of mice,[5],100.6%
same,Average weight of mice,[6],27.8 g
same,Rate of change in weight of mice,[6],100.1%
same,Average weight of mice,[7],27.6 g
same,Rate of change in weight of mice,[7],100.0%
same,Average weight of mice,[8],28.0 g
same,Rate of change in weight of mice,[8],100.5%
same,Average weight of mice,[9],27.9 g
same,Rate of change in weight of mice,[9],100.3%
same,Average weight of mice,[10],27.6 g
same,Rate of change in weight of mice,[10],100.0%
same,Average weight of mice,[11],28.0 g
same,Rate of change in weight of mice,[11],100.3%
same,Average weight of mice,[12],27.9 g
same,Rate of change in weight of mice,[12],100.3%
same,Average weight of mice,[13],27.3 g
same,Rate of change in weight of mice,[13],99.1%
same,Average weight of mice,[14],27.2 g
same,Rate of change in weight of mice,[14],97.6%
same,Average weight of mice,[15],27.5 g
same,Rate of change in weight of mice,[15],99.1%
same,Average weight of mice,[16],27.2 g
same,Rate of change in weight of mice,[16],98.7%
same,Average weight of mice,[17],26.3 g
same,Rate of change in weight of mice,[17],94.3%
same,Average weight of mice,[18],27.2 g
same,Rate of change in weight of mice,[18],97.8%
same,Average weight of mice,[19],26.8 g
same,Rate of change in weight of mice,[19],97.0%
same,Average weight of mice,[20],25.9 g
same,Rate of change in weight of mice,[20],93.0%
same,Average weight of mice,[21],26.7 g
same,Rate of change in weight of mice,[21],96.0%
same,Average weight of mice,[22],26.3 g
same,Rate of change in weight of mice,[22],95.3%
same,Average weight of mice,[23],25.6 g
same,Rate of change in weight of mice,[23],91.6%
same,Average weight of mice,[24],26.2 g
same,Rate of change in weight of mice,[24],94.3%
same,Average weight of mice,[25],25.8 g
same,Rate of change in weight of mice,[25],93.5%
same,Average weight of mice,[26],25.3 g
same,Rate of change in weight of mice,[26],90.8%
same,Average weight of mice,"Day 9, middle-dose treatment group 20 mg/kg intraperitoneal injection",25.9 g
